Measurements as given in patent EP4813993A1, “COMPOUND, PREPARATION METHOD THEREFOR, AND USE THEREOF” (Sichuan Kelun Pharmaceutical Research Institute Co., Ltd., priority 2023, dated 2025).

What was measured:
incision pain model [1] = experiment: Incision pain model in ICR mice, Von Frey test; assay type: in vivo; conditions: 50 mg/kg single dose, Mean + SEM, n = 10
Nav1.8 channels = biological target: T1, Nav1.8 channels (Homo sapiens, UniProt Q9Y5Y9); experiment: Manual patch-clamp, current of stably overexpressed Nav1.8 channels (resting state voltage program); assay type: cell-based; conditions: for inhibition at 0.001 µM: concentration of 1 nM, read-out: Inhibition rate %
T1 construct: expressed in transfected cells
T1 sequence (Q9Y5Y9 whole entry): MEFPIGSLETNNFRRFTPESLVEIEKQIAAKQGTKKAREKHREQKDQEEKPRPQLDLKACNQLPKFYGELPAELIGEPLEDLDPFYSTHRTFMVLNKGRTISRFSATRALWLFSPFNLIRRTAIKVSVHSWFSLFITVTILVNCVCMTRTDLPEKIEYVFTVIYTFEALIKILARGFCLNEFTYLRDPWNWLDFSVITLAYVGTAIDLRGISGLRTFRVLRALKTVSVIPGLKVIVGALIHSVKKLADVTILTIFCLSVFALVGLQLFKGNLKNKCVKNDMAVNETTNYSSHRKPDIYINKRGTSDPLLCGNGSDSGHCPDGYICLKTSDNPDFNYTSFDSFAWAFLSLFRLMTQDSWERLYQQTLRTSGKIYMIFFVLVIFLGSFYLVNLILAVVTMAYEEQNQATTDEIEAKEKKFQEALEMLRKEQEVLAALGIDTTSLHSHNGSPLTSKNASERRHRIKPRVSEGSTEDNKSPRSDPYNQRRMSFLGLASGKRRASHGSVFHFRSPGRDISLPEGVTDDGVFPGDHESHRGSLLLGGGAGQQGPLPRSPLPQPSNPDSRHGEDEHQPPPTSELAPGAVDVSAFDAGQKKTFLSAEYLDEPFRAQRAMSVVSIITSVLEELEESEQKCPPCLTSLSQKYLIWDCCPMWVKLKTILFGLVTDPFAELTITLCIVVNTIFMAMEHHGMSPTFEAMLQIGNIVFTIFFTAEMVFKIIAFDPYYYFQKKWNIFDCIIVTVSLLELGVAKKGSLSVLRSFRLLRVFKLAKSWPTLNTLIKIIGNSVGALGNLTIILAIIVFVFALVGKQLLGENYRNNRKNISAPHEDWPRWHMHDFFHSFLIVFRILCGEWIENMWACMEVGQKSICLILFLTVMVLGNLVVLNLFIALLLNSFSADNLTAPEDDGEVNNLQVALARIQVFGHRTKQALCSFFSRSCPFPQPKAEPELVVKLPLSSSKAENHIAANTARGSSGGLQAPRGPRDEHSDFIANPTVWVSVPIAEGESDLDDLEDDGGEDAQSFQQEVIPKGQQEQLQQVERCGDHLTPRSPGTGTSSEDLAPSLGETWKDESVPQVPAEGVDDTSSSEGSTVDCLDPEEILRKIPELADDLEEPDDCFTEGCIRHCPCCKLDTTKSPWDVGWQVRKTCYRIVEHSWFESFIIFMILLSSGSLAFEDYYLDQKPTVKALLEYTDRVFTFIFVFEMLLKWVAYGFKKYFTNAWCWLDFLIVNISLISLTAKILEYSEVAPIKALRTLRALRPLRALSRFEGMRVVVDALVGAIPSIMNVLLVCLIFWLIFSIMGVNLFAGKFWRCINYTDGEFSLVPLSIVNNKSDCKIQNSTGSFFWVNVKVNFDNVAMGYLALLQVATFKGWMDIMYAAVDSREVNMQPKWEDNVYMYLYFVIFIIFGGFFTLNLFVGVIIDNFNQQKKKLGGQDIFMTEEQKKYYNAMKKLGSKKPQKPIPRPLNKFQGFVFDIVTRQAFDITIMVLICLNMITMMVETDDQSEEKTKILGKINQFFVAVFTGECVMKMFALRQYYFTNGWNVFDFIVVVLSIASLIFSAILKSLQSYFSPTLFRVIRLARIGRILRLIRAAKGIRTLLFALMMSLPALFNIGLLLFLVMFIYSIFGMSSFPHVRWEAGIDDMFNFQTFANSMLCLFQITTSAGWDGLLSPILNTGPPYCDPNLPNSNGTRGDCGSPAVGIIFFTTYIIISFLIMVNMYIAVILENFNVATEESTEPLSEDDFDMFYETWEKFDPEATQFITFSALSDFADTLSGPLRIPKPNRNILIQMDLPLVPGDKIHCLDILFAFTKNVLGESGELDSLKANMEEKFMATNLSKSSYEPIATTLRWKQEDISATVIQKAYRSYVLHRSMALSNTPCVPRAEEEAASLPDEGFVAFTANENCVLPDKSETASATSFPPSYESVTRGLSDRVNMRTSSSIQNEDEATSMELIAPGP
Method in brief: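 Whole-cell manual patch clamp on cells stably overexpressing Nav1.8, held at -120 mV and stepped to 0 mV for 50 ms every 20 s (resting-state protocol). Compounds were perfused in ascending concentrations, each for 5 min or until stable; block of peak current was calculated at steady state.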

[2] = Pharmacokinetic study in ICR mice; assay type: in vivo; conditions: mouse
Method: Experimental Example 3: Pharmacokinetic study of compounds in ICR mice
(§1) Experimental animals: ICR mice, male, 6-8 weeks old.
(§2) Compound preparation: 5% (final preparation volume) of DMSO was added to dissolve the test compound, and then 10% (final preparation volume) of Cremophor EL and 85% Saline were sequentially added.
The injection group was given free access to food and water. The oral group was fasted overnight (> 12 h) with free access to water, and was fed 4 h after administration. Blood samples were collected from the jugular vein of ICR mice at the following time points: 5 min, 15 min, 0.5 h, 1 h, 2 h, 4 h, 8 h, and 24 h after injection administration; 15 min, 0.5 h, 1 h, 2 h, 4 h, 6 h, 8 h, and 24 h after oral administration. The collected blood samples were anticoagulated, placed in an ice bath, and then centrifuged for 5 min to separate plasma. The plasma was stored at -70 °C for analysis.
Sample test: The concentrations of the designated compound drugs in plasma were determined by the LC-MS/MS method; the main pharmacokinetic parameters were calculated using the Winnolin 8.3 non-compartmental model. Pharmacokinetic test results of some compounds of the present disclosure in ICR mice

incision pain model [3] = experiment: Incision pain model in ICR mice, Von Frey test; assay type: in vivo; conditions: Mean + SEM, n = 10; for PWT 50% value (g) Post-surgery, Preadministration / PWT 50% value (g) Pre-surgery: 50 mg/kg group; for PWT 50% value (g) Post-surgery, Preadministration: baseline before administration; for PWT 50% value (g) Pre-surgery: baseline before surgery; for PWT 50% value (g) 0.5 h / PWT 50% value (g) 2 h / PWT 50% value (g) 4 h: 50 mg/kg single dose; for PWT 50% value (g) 0.5 h: 0.5 h after administration; for PWT 50% value (g) 2 h: 2 h after administration; for PWT 50% value (g) 4 h: 4 h after administration
Method: Experimental Example 6: Pharmacodynamic effect study of compounds in incision pain model in ICR mice Experimental animals: ICR mice, male, 28-35 g.
as §2
A plantar incision pain model was established in mice via surgery before the administration and test. Mice were placed in an anesthesia induction chamber and given 3%-4% isoflurane for anesthesia induction. After the anesthesia induction, a breathing mask was applied, and the isoflurane concentration was adjusted to 1%-2% to prevent the mice from suffering pain during the surgery. Each mouse was placed in a supine position, and the surgical site was disinfected with alcohol and iodophor. Under sterile conditions, a 0.5 cm longitudinal incision was made on the left hind paw surface, 0.2 cm away from the heel, extending toward the toes. The skin and fascia were incised; the plantar muscle was separated, slightly lifted, and longitudinally incised. The skin was then sutured with 5-0 sutures and disinfected.
2. Administration and test
The Von Frey test was performed once before the surgery. On the second day after animal modeling, the test was repeated, and animals meeting the baseline requirements were selected for enrollment. The animals were randomly grouped based on the 50% PWT values, with 10 animals per group. Administration was performed under a double-blind test protocol. The 50% PWT of the animals was measured separately before administration (baseline) and at 0.5 h, 2 h, and 4 h after administration, and a single dose was administered. The model control group was given normal saline, while the compound groups were given the compounds according to the administration doses in the table below.

[4] = Tissue distribution study (dorsal root ganglia) in ICR mice; assay type: in vivo; conditions: male, mouse, oral administration 20 mg/kg
Method: Experimental Example 4: Tissue distribution study of compounds in ICR mice
as §1, §2
(§3) Experimental design: The test compounds were administered to ICR mice as a single dose via oral administration (20 mg/kg; n = 3, 3 time points). Blood samples were collected at 0.25 h, 2 h, and 12 h after oral administration, followed by sacrifice of the animals. Dorsal root ganglia (DRG) were collected, rinsed with ice-cold normal saline to remove residual blood, blotted dry with absorbent paper, and stored at -70 °C for analysis.
Sample test: The concentrations of the compound drugs in dorsal root ganglia were determined by the LC-MS/MS method.

[5] = test system: acetic acid writhing model; experiment: Mouse acetic acid writhing model; assay type: in vivo, ICR mice
Method: Experimental Example 11: Pharmacodynamic effect study of compounds in mouse acetic acid writhing model
Experimental animals: ICR mice, male, 20-24 g.
Compound preparation: 5% (final preparation volume) of DMSO was added to dissolve the test compound, and then 10% (final preparation volume) of Cremophor EL and 85% Saline were sequentially added; an appropriate amount of Etoricoxib was weighed, 5% (final preparation volume) of DMSO was added to dissolve the test compound, and then 5% (final preparation volume) of HS-15 and 90% Saline were sequentially added.
• 1. The mice were randomly grouped based on the body weight for model establishment, with 10 animals per group. A 0.8% (v/v) acetic acid solution was intraperitoneally injected at an injection volume of 10 mL/kg. • 2. Administration and test
Administration was performed 60 min before modeling. After the acetic acid solution was injected, the number of writhing responses in mice was observed. […] The number of writhing responses was observed and recorded during two intervals: 0-15 min and 15-30 min, with a total observation duration of 30 min. Inhibition rate = (number of writhing responses in control group - number of writhing responses in administration group)/number of writhing responses in control group × 100%. The model control group was given normal saline, the positive control group 1 was given etoricoxib at 20 mg/kg, the positive control group 2 was given VX-548 at 50 mg/kg, and the remaining groups were given the compounds of the present disclosure according to the administration doses in the table below.

[6] = Tissue distribution study (dorsal root ganglia) in SD rats; assay type: in vivo; conditions: male, rat, oral administration 10 mg/kg
Method: Experimental Example 5: Tissue distribution study of compounds in SD rats
Experimental animals: SD rats, male, 6-8 weeks old.
as §2
as §3, with “SD rats” for “ICR mice”, “(10” for “(20”, “0.5” for “0.25”, “6” for “12”, “ganglia” for “ganglia (DRG)”
Sample test: The concentrations of the designated compound drugs in plasma and tissues were determined by the LC-MS/MS method.

[7] = male, plasma, Oral administration, 10 mg/kg
[8] = male, plasma, iv, Injection (i.v.), 2 mg/kg

Compound | PWT 50% value (g) AUC0-8h (incision pain model [1]) [g·h] | inhibition at 0.001 µM (Nav1.8 channels) [%] | AUC(0-inf) [2, 7] [ng·h/mL] | AUC(0-inf) [2, 8] [ng·h/mL] | PWT 50% value (g) Post-surgery, Preadministration (incision pain model [3]) [g] | PWT 50% value (g) Pre-surgery (incision pain model [3]) [g] | PWT 50% value (g) 0.5 h (incision pain model [3]) [g] | PWT 50% value (g) 2 h (incision pain model [3]) [g] | PWT 50% value (g) 4 h (incision pain model [3]) [g] | concentration at 0.25 h [4] [ng/g] | concentration at 2 h [4] [ng/g] | concentration at 12 h [4] [ng/g] | Number of writhing responses ([5]; ICR mice, Dose 50 mg/kg, 60 min before 0.8% acetic acid i.p., 30 min observation, Mean + SD, n = 10) | inhibition of the writhing effect compared with VX-548 ([5]; mouse acetic acid writhing model) | IC50 (Nav1.8 channels) [nM] | AUC(0-inf) ([2]; in vivo, Oral administration, 10 mg/kg) [ng·h/mL] | AUC(0-inf) ([2]; in vivo, iv, Injection (i.v.), 2 mg/kg) [ng·h/mL] | concentration at 0.5 h ([6]; Time 0.5 h) [ng/g] | concentration at 2 h ([6]; Time 2 h) [ng/g] | concentration at 6 h ([6]; Time 6 h) [ng/g]
COc1c([C@@H]2C[C@](C)(C(F)(F)F)S[C@H]2C(=O)Nc2ccn3nncc3c2)ccc(F)c1F [Compound 246-A, (2R,3S,5R)-3-(3,4-difluoro-2-methoxyphenyl)-5-methyl-N-((1,2,3)triazolo(1,5-a)pyridin-5-yl)-5-(trifluoromethyl)tetrahydrothiophene-2-carboxamide] | 2.53 ± 0.82 | 77.8 | 2580 | 1400 | 0.24 ± 0.03 | 1.4 ± 0.17 | 0.32 ± 0.12 | 0.33 ± 0.16 | 0.4 ± 0.27 |  |  |  |  |  |  |  |  |  |  | 
COc1c([C@@H]2C[C@](C)(C(F)(F)F)S[C@H]2C(=O)Nc2ccc(F)c(S(N)(=O)=O)c2)ccc(F)c1F [Compound 233-A, (2R,3S,5R)-3-(3,4-difluoro-2-methoxyphenyl)-N-(4-fluoro-3-sulfamoylphenyl)-5-methyl-5-(trifluoromethyl)tetrahydrothiophene-2-carboxamide] | 3.21 ± 1.35 | 94.1 | 34100 | 9490 | 0.22 ± 0.02 | 1.54 ± 0.4 | 0.42 ± 0.34 | 0.62 ± 0.32 | 0.41 ± 0.21 | 400 | 2850 | 489 |  |  |  |  |  |  |  | 
COc1c([C@@H]2C[C@](C)(C(F)(F)F)S[C@H]2C(=O)Nc2ccnc(N=[N+]=[N-])c2)ccc(F)c1F [a-20-A, (2R,3S,5R)-N-(2-azidopyridin-4-yl)-3-(3,4-difluoro-2-methoxyphenyl)-5-methyl-5-(trifluoromethyl)tetrahydrothiophene-2-carboxamide] | 3.48 ± 0.82 |  | 15400 | 1990 | 0.29 ± 0.09 | 1.14 ± 0.21 | 0.39 ± 0.14 | 0.49 ± 0.18 | 0.57 ± 0.22 | 1040 | 5900 | 1910 | 17 ± 11 | better than VX-548 | 0.001 |  |  |  |  | 
COc1c([C@@H]2C[C@](C)(C(F)(F)F)S[C@H]2C(=O)Nc2ccc(NS(N)(=O)=O)c(F)c2)ccc(F)c1F [a-19-A, (2R,3S,5R)-3-(3,4-difluoro-2-methoxyphenyl)-N-[3-fluoro-4-(sulfamoylamino)phenyl]-5-methyl-5-(trifluoromethyl)thiolane-2-carboxamide] | 3.04 ± 0.83 |  |  |  | 0.29 ± 0.13 | 1.33 ± 0.46 | 0.47 ± 0.22 | 0.51 ± 0.29 | 0.44 ± 0.18 |  |  |  |  |  | 0.34 |  |  |  |  | 
COc1c([C@@H]2C[C@](C)(C(F)(F)F)S[C@H]2C(=O)Nc2ccc3c(c2)S(=O)(=O)NC3)ccc(F)c1F [Compound a-37-A, (2R,3S,5R)-3-(3,4-difluoro-2-methoxyphenyl)-N-(1,1-dioxide-2,3-dihydrobenzo[d]isothiazol-6-yl)-5-methyl-5-(trifluoromethyl)tetrahydrothiophene-2-carboxamide] | 2.71 ± 0.39 |  |  |  | 0.24 ± 0.03 | 1.43 ± 0.33 | 0.33 ± 0.12 | 0.55 ± 0.18 | 0.32 ± 0.1 |  |  |  |  |  |  | 8130 | 2030 |  |  | 
COc1c([C@@H]2C[C@](C)(C(F)(F)F)SC2C(=O)Nc2ccnc([N+](=O)[O-])c2)ccc(F)c1F (stereo in doubt) [a-7-A, (2S,3S,5R)-3-(3,4-difluoro-2-methoxyphenyl)-5-methyl-N-(2-nitropyridin-4-yl)-5-(trifluoromethyl)tetrahydrothiophene-2-carboxamide] | 3.62 ± 1.28 |  | 10200 | 2090 | 0.27 ± 0.13 | 1.43 ± 0.43 | 0.47 ± 0.16 | 0.72 ± 0.35 | 0.47 ± 0.25 |  |  |  |  |  | 0.15 |  |  | 115 | 768 | 557
